Assay results reported in patent publication US6420563B1, “Small molecule modulators of G protein-coupled receptor six” (Arena Pharmaceuticals, Inc., priority 1998, dated 2002).

Columns and labels:
Format in all cases: in vivo, rat
[1] = Food/water intake and body weight in 24-hour food-deprived rats, IP administration; conditions: for body weight gain: vehicle 20 g
Procedure: An in vivo assessment of GPR6 inverse agonist was accomplished by determining the effects of ARE112 on food intake after food deprivation in rats. Food deprivation was used to induce higher than normal eating behavior (e.g., controlvehicle-treated animals were hyperphagic).
The animals (male Sprague-Dawley rats were used for the following experiments) were food deprived for 24 hr, and then injected intraperitoneally (IP) with 0, 6.75, 13.5, 27 and 54 mg/kg of compound ARE112. After 30 min, rats were introduced to standard rat chow pellets and observed thereafter for a period of 6.5 hours post-injection.

[2] = Long-term (60 days) body weight, daily repeated IP administration, non-food deprived rats; conditions: 13.5 mg/kg IP once a day for 22 days, assessed for 60 days
Procedure: Long-term effects (60 days) of ARE112 were also examined. Animals (treatment, n=4; control, n=5) were treated once a day intraperitoneally with ARE112 for 22 days and assessed for a period of 60 days. On days 1 to 3, animals treated with dose of 13.5 mg/kg initially lost body weight and between day 4 and day 31, animals gradually gained weight, although still weighing less than vehicle treated animals. […] See, FIG. 11.

[3] = Intracerebroventricular (ICV) administration on 24-hour food-deprived rats; conditions: for water drunk: comparable to vehicle
Procedure: Animals were prepared with an ICV cannula aimed above the lateral ventricle. For this surgery, animals were placed under general anesthesia using continuous inhalation of isoflurane and secured in a Kopf stereotaxic instrument. Surgery was performed in a dedicated surgery room, using sterile instruments, surgical gloves and aseptic procedures to prevent clinical infections. The surgical site was shaved and disinfected with betadine solution and alcohol. Animals were observed continuously for the level of anesthesia by testing for the animals' responses to tail- or paw-pinch. A cannula made of 23 gauge stainless steel tubing (7 mm long) was lowered to a point 1 mm above the ventricle, using coordinates: A/P−0.6 mm from bregma, M/L+/−2.0 mm from bregma, D/V 3.2 mm below skull surface. The guide was anchored to the skull with three stainless steel screws and dental cement. Coordinates were based on stereotaxic atlas such as Paxinos and Watson sterotaxic atlas (Paxinos, G. and Watson, C, The Rat Brain, New York, Academic Press, 1982). After cannula implantation, a 30-gauge stainless steel dummy stylet was inserted into the cannula. At the conclusion of surgery, a heat source (heat lamp directed towards one half of recovery cage) was used to maintain body temperature while the animals recovered from anesthesia. Animals were allowed at least one week of recovery after surgery before ICV injection of compound was performed.
Animals were food-deprived for 24 hours prior to administration of the compound.
For ICV injection, the dummy stylet was removed from the implanted cannula, and a 30-gauge stainless steel injector cannula containing ARE112 suspension in a 45% cyclodextrin solution was inserted to a depth 1.5 mm beyond the ventral tip of the implanted cannula. The other (noninserted) end of the injector cannula was attached to 60 cm of PE10 tubing containing the compound suspension, which was attached at the free end of tubing to a 25 μl Hamilton syringe. Ten microliters of ARE112 suspension (containing, 0, 25, 50, and 100 nmol) were then delivered via gentle and even mechanical pressure to the plunger of the Hamilton syringe. The volume of injection was verified by marks on the PE 10 tubing previously calibrated with a 10 μl Hamilton syringe. At the conclusion of injection, any fluid observed from the dorsal tip of the implanted cannula upon withdrawal of the injector cannula was noted, and the dummy stylet was inserted into the implanted cannula.

[4] = Food intake in non-food deprived rats, oral gavage
Procedure: In a second assay, rats were treated with ARE112 by oral gavage but were not food deprived. Data evidence an even greater decrease in food intake, such that at 18 hours post administration of the compound, the vehicle rats had consumed about 15 grams of food while the injected rats (at all doses) ate 5 grams or less; about a three fold decrease in food consumption when treated with compound ARE112. (See, FIG. 9B).

With O=C(N=C1SSC2=NCCN21)c1cccs1 [ARE112, N-(5,6-dihydro-3H-imidazo[2,1-c]-1,2,4-dithiazol-3-ylidene)-thiophen-2-carboxamide] the body weight gain ([1]; 13.5 mg/kg IP) was 11 g, the body weight gain ([1]; 27 mg/kg IP) was “no weight gain” and the “decrease in water intake” value ([1]; 54 mg/kg IP) was 5 fold. For the same molecule, the “food consumed (cumulative food intake)” value ([1]; 54 mg/kg IP, 1.5 hours after injection, vehicle about 6 grams) was 3 g, the “food consumed (cumulative food intake)” value ([1]; 54 mg/kg IP, 6.5 hours post-injection, vehicle up to 14 g) was 4 g and the body weight gain ([1]; 54 mg/kg IP) was “no weight gain”. The “body weight, long-term” value [2] was “long-term decrease in body weight”, the water drunk ([3]; 25 nmol ICV) was “about 17 grams” and the water drunk ([3]; 50 nmol ICV) was “about 17 grams”. The water consumed ([3]; 100 nmol ICV, relative to about 17 grams) was “less than half that amount”, the weight gained ([3]; 100 nmol ICV, vehicle about 12 grams) was 5 grams and the food consumed ([3]; after three hours, ICV, vehicle about 2.5 grams) was at most 1.0 grams. The “less food consumed than vehicle” value ([3]; two hours post-administration, all doses (25, 50, 100 nmol ICV)) was “about 6 fold”, the oral activity ([4]; 6.75 to 54 mg/kg) was “orally active” and the “decrease in food consumption” value ([4]; 18 hours post administration) was “three”. For the same molecule, the food consumed ([4]; all doses, 18 hours post administration, vehicle about 15 grams) was at most 5 grams.
